“Also recorded” adds a separate entry of the source.

Test [1] deals with PFC pyramidal neurons of NVHL rats. Description: In vivo intracellular recordings: PFC pyramidal cell firing after VTA stimulation in NVHL rats. Also on record: species or system Sprague-Dawley rats. The note with it: anesthetized adult NVHL rats, juvenile treatment. Here is the method:
The abnormal dopamine modulation of PFC function in NVHL rats is also observed in vivo. In vivo intracellular recordings were performed in 38 pyramidal neurons from adult rats (n=9 SHAM (placebo), n=5 NVHL, and n=7 NAC-treated NVHL). […] Up states occurred at a frequency of 0.6±0.1 Hz with a duration of 523.6±24.7 ms. The majority of cells (n=21) fired spontaneously at a rate of 2.1±0.7 Hz.
Antioxidant pretreatment regimen: NAC (BioAdvantexPharma, Mississauga, Ontario, Canada) was administered in the drinking water at 900 mg/l. NAC treatment started at P5 or at P35, and previous work in mice has shown that NAC consumed by the dam is transmitted to the pups through her milk (das Neves Duarte et al., 2012). NAC treatment ended at P50. Fresh solutions were prepared every 2-3 days. Ebselen (Sound Pharmaceuticals Inc., Seattle, WA) was administered i.p. 5 days a week starting at P35 until the day of PPI testing (P60). Stock ebselen solution (20 mg/ml DMSO, frozen aliquots) was diluted 1:5 in sterile water and administered at a dose of 10 mg/kg. Control animals received an equivalent concentration of DMSO diluted 1:5 in water. […]
Microelectrodes were advanced through the medial PFC until a neuron was impaled. […] Firing was measured in the 500 ms epoch following the last VTA pulse in all sweeps, and compared among experimental groups. […]

The test system of test [2] is dopamine D2-dependent modulation of EPSPs in PFC pyramidal cells of NVHL rats. Description: Slice electrophysiology: D2 (quinpirole) modulation of EPSPs in PFC layer V pyramidal cells of NVHL rats. The test is classed as in vivo, Sprague-Dawley rats. To be noted: adult NVHL rat PFC slices, quinpirole 5 μM; treatment during development. How it is done:
If juvenile oxidative stress is the cause of physiological anomalies observed in adult NVHL rats, NAC treatment can rescue these alterations. Whole-cell recordings were conducted from pyramidal neurons in adult brain slices containing the medial PFC of SHAM (n=12), NVHL (n=16), and NAC-treated NVHL rats (n=14). As previously shown in adult NVHL rats and other rodent models of schizophrenia (Niwa et al., 2010; Tseng et al., 2008), the dopamine D2-dependent modulation of excitatory postsynaptic potentials (EPSPs) in layer V pyramidal cells was lost in NVHL rats (as shown in FIGS. 13A-C). This loss is likely due to abnormal maturation of PFC interneurons, as the normal adult D2 modulation includes a GABA-A receptor component (Tseng and O'Donnell, 2007), but oxidative stress in pyramidal neurons may also play a role. To determine whether altered PVI-dependent PFC synaptic responses are due to oxidative stress, rats were treated with NAC during development and then tested for D2 modulation of PFC physiology.
Antioxidant pretreatment regimen: NAC (BioAdvantexPharma, Mississauga, Ontario, Canada) was administered in the drinking water at 900 mg/l. NAC treatment started at P5 or at P35, and previous work in mice has shown that NAC consumed by the dam is transmitted to the pups through her milk (das Neves Duarte et al., 2012). NAC treatment ended at P50. […]

Take `CC(=O)N[C@@H](CS)C(=O)O` [NAC, N-acetyl cysteine]: the “effect on abnormal increase in pyramidal cell firing after VTA burst stimulation” value in test [1] is listed as “prevented; also recorded: sparse”. In addition, the “effect on lost D2 modulation (quinpirole attenuation) of EPSPs” value in test [2] is reported as “rescued; also recorded: reverses”.

The values above are taken from US20240050409A1, “Methods and Compositions for Treating Psychotic Disorders” (SOUND PHARMACEUTICALS INCORPORATED, priority 2014, published 2024).
